# Key:
# [1] = tested on: L1210 lymphoblastic leukemia cells; assay: Mouse model of L1210 leukemia
# Description: C57B mice were inoculated with L1210 lymphoblastic leukemia cells at an inoculum that causes leukemia in 100% of animals. Mice received compound 1436 at 1, 5, 10 mg/kg every 3 days intraperitoneally.
# Of particular interest is the hematological profile determined during the course of treatment. Animals were treated with cisplatin and compound 1436.
# [2] = Growth and weight gain in normal growing mice; type: in vivo; conditions: C57B mice
# Description: Animals were dosed QTD (i.p.) starting on Day 1. […] Animals receiving 5 mg/kg QTD experienced about a 50% reduction in growth, compared to untreated controls, while animals receiving 1 mg/kg QTD were affected by about 10%. […] They appeared very much like hypophysectamized animals might appear.
# [3] = Arterial pressure in catheterized rat; type: in vivo
# Description: A 200-g rat was catheterized in the right carotid artery, and the compound was introduced over a ten-second period to a total dosage of 5 mg/kg. Within 30 seconds, the mean arterial pressure had fallen from about 100 mm Hg to about 70 mm Hg, with a marked reduction in pulse pressure from about 40 mm to about 10 mm. […] If cardiac output was basically unaffected, reduction in blood pressure would have resulted principally from a reduction in system resistance.
# At that time, 40 μg of noradrenaline was introduced.
# HIV clinical isolate = assay: HIV replication in PHA-stimulated lymphocytes (P-24 antigen Elisa); type: cell-based; set-up: P-24 Elisa: unit not given here; conditions: for P-24 Elisa: 7 days
# Description: (§1) PHA-stimulated lymphocytes were inoculated with a clinical isolate of HIV at a multiplicity of infection of […]. Fresh lymphocytes were obtained and stimulated with PHA and IL-2. After 3 days, 1000 TCID of virus-(HIV clinical isolate) were applied for 1 hour and there was a M.O.I. of 1:10. The cells were washed and in a dose response fashion, and drug in media was applied. After 3 days, the supernatant was exchanged with ½ volume of fresh media and ½ the volume of fresh drug. After 7 days, detergent was added, and HIV P-24 Antigen was determined by Elisa. Viability of the lymphocytes was evaluated along with appearance of the viral gene product p24.
# [4] = tested on: Human coronary artery smooth muscle cells; assay: In vitro growth of coronary artery smooth muscle; type: cell-based
# Excerpt: (§2) As set forth in Table 7 below, all malignant tumors evaluated in tissue culture, endothelial cells and vascular smooth muscle cells were sensitive to inhibition. Thus, compound 1436 has application in the control of growth factor dependent proliferation of many types of tissue.
# Aminosterols of the invention may also have utility in inhibiting the growth factor mediated proliferation of smooth muscle within the artery. Following coronary angioplasty, reocclusion commonly occurs, secondary to reparative proliferation of the vascular smooth muscle within the wall of the surgically manipulated blood vessel. This process generally takes place over the course of 7-10 days. To evaluate whether an agent could prevent the growth factor mediated proliferation of smooth muscle within the artery, compound 1436 was evaluated in vitro for its effect on the proliferation of human coronary artery smooth muscle. Results for compound 1436 are shown in FIG. 13, and those for squalamine are shown in FIG. 14, with FIG. 15 being a composite logarithmic plot.
# [5] = tested on: PHA-stimulated lymphocytes; assay: Viability of lymphocytes in the HIV replication test; type: cell-based
# Description: as §1
# [6] = tested on: human foreskin fibroblasts; assay: Cell growth with membrane-active agents (absorbance at 600 nm); type: cell-based; conditions: 10 μg/ml
# Description: (§3) Cell growth was measured by absorbance at 600 nm.
# [7] = tested on: human epithelial cell line MCF 10A; assay: as above; type: cell-based; conditions: 10 μg/ml
# Description: as §3
# [8] = tested on: bovine pulmonary endothelial cells; assay: as above; type: cell-based; conditions: 1 μg/ml
# Description: as §3
# [9] = tested on: human microvascular cells; assay: Endothelial cord formation assay; type: cell-based; as to Effect on endothelial cord formation: key: + = Inhibition of angiogenesis; − = No inhibition of angiogenesis; T = Toxic; *= cell rounding @ 10 µg/ml
# Procedure, shortened: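 Human microvascular endothelial cells plated on collagen matrix with VEGF and basic fibroblast growth factor; compound effect assessed on resulting cord-like tubular structures.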
# human melanoma 1205Lu = assay: Growth of human melanoma 1205Lu in RAG-1 mice; type: in vivo; conditions: 10, 20, 40 mg/kg/d; started when tumors about 0.1 ml
# Excerpt: As apparent from FIG. 5, melanoma 1205Lu develops aggressively in RAG-1 mice after implantation.
# VX2 carcinoma = assay: Tumor-induced corneal neovascularization in rabbits; type: in vivo, rabbit; conditions: pellet of ELVAX 40 P
# Excerpt: The implantation of VX2 carcinoma into the rabbit cornea results in the induction of new blood vessels within several days (Tamargo et al., Cancer Research 51, 1991, 672-675). It is believed that this carcinoma secretes growth factors that stimulate new blood-vessel growth. Thus, this model is indicative in vivo evidence of therapeutic utility in the treatment of pathological disorders of vascularization, including the metastatic spread of tumors, diabetic retinopathy, macular degeneration, and rheumatoid arthritis.
# This experiment followed the published protocol—tumor was implanted adjacent to a polymer containing a concentration of the agent to be evaluated. The polymer releases the agent slowly in the immediate neighborhood of the tumor, providing sustained high local concentrations of the agent. In this experiment, squalamine introduced into a pellet of ELVAX 40 P (DuPont, Wilmington, Del.) inhibited new blood vessel formation by about 60% at days 7 and 14, and by about 25% at day 21.
# Mouse IV PK study = conditions: in vivo, i.v., HPLC, read-out: Half-life of clearance from the blood stream
# Description: To assess clearance, a mouse IV PK study was performed for compound 319 and squalamine. The compound was administered i.v. and blood samples were taken every 10 minutes. The concentration of the administered steroid was determined by HPLC analysis.
# Murine B16 melanoma = assay: In vitro cell growth inhibition (assay of Baker et al.); type: cell-based; conditions: except at very high concentrations
# Excerpt: as §2
# [10] = mice with 5 × 10^5 L1210 cells ip, cisplatin 8 mg/kg ip, compound 1436 10 mg/kg ip q4d
compound,measurement,setting,value
CC(CC[C@@H](OS(=O)(=O)O)C(C)C)[C@H]1CCC2C3C(CC[C@@]21C)[C@@]1(C)CC[C@H](NCCCNCCCCNCCCN)C[C@@H]1C[C@H]3O (stereo partly shown) [Compound 1436],Survival of leukemic mice,[1]; highest dose (10 mg/kg every 3 days intraperitoneally),significant prolongation of life
same,"RBC, Early Time",[1]; [10],4.8 10^6/mm^3
same,"RBC, Late Time",[1]; [10],8.8 10^6/mm^3
same,"WBC, Early Time",[1]; [10],3.3 10^3/mm^3
same,"WBC, Late Time",[1]; [10],3.7 10^3/mm^3
same,Reduction in growth compared to untreated controls,[2]; 1 mg/kg QTD i.p.,about 10%
same,Reduction in growth compared to untreated controls,[2]; 5 mg/kg QTD i.p.,~50%
same,Suppression of growth of mice,"[2]; 10 mg/kg QTD i.p., after 6 doses, about 1 month",growth was almost completely inhibited
same,Heart rate,[3]; 5 mg/kg,no significant increase in heart rate
same,Time to fall of arterial pressure,[3]; 5 mg/kg,≤ 30 s
same,Mean arterial pressure after dosing,"[3]; 5 mg/kg over ten seconds, fallen from about 100 mm Hg",about 70 mm Hg
same,Pulse pressure after dosing,"[3]; 5 mg/kg, reduced from about 40 mm",about 10 mm
same,P-24 Elisa,HIV clinical isolate; Conc. 0.5 μM,40561
same,P-24 Elisa,HIV clinical isolate; Conc. 1 μM,7464
same,P-24 Elisa,HIV clinical isolate; Conc. 5 μM,3426
same,P-24 Elisa,HIV clinical isolate; Conc. 10 μM,421
same,P-24 Elisa,HIV clinical isolate; Conc. 20 μM,9
same,inhibition at 10 µg/mL,"HIV clinical isolate; Human immunodeficiency virus 1, Lymphocyte, 10 μg/ml, read-out: Inhibition of antigen synthesis",97%
same,Concentration effective in suppressing growth,[4],10 to 12 µg/mL
same,Concentration maintaining cells quiescent without loss of viability,[4],about 11 μg/ml
same,Lymphocyte viability retained,[5]; 10 μg/ml,95%
same,% Viability,[5]; Conc. 0.5 μM,91%
same,% Viability,[5]; Conc. 10 μM,95%
same,% Viability,[5]; Conc. 20 μM,90.1%
CC(CC[C@@H](OS(=O)(=O)O)C(C)C)[C@H]1CCC2C3C(CC[C@@]21C)[C@@]1(C)CC[C@H](NCCCNCCCCN)C[C@@H]1C[C@H]3O (stereo partly shown) [squalamine],Effect on cell growth,[6],no effect on the growth
same,Effect on cell growth,[7],no effect on the growth
same,Effect on cell growth,[8],inhibited the growth
same,Concentration that inhibits cord formation,[9],about 0.1 μg/ml
same,Effect on endothelial cord formation,[9]; 0.01 μg/ml,−
same,Effect on endothelial cord formation,[9]; 0.1 μg/ml,+
same,Effect on endothelial cord formation,[9]; 1.0 μg/ml,+
same,Effect on endothelial cord formation,[9]; 10.0 μg/ml,+
same,Suppression of tumor growth,human melanoma 1205Lu,suppress the growth of melanoma 1205Lu in RAG-1 mice in a dose-dependent fashion
same,Inhibition of new blood vessel formation,VX2 carcinoma; day 21,about 25%
same,Inhibition of new blood vessel formation,VX2 carcinoma; days 7 and 14,about 60%
same,half-life,Mouse IV PK study,~35 min
same,Cytostatic activity against B16 in culture,Murine B16 melanoma,minimal cytostatic activity
